From US8729115B2 (Cardiolynx AG, priority 2010, dated 2014)
Where two headings read alike, the source gives them in different places.

Tests used:
[1] = tested on: isolated rat cardiac mitochondria; assay: ROS/RONS formation in isolated mitochondria (L-012 chemiluminescence)
From the text: Reactive oxygen and nitrogen species formation in response to in vitro challenge of isolated rat cardiac mitochondria based on reaction of the chemiluminescence dye L-012 (a luminal analogue), Example 4, Table 2. X-axis: compounds tested with concentration [μM]; y-axis: photons n per 30 sec of emission of chemiluminescence light (ECL).
Vascular oxidative stress is a well-known side effect of nitrate tolerance (an adverse condition that develops under chronic nitrate therapy). Therefore, the induction of reactive oxygen and nitrogen species formation in response to in vitro challenges with the test compounds was assessed in isolated mitochondria according to a published procedure [Daiber, A. et al., Mol Pharmacol 66 (2004), 1372-1382; Daiber, A. et al., Biochem Biophys Res Commun 338 (2005), 1865-1874; Daiber, A. et al., Mol Pharmacol 68 (2005), 579-588]. The assay is based on the reaction of the chemiluminescence dye L-012 (a luminol analogue) with reactive oxygen and nitrogen species (RONS, e.g. superoxide anion radicals, peroxynitrite anions or nitrogen dioxide radicals) and subsequent emission of chemiluminescence light (ECL). The signal is counted in photons/time (=counts/30 s). The data are based on experiments with cardiac mitochondria from at least 6 rats on 3 different days.

[2] = tested on: rat aortic ring segments; assay: Isometric tension: vasodilation of rat aortic ring segments preconstricted with phenylephrine; type: cell-based; conditions: for EC50 / pD2-value (vasodilatory potency): concentration-relaxation curve; for EC50 / Vasodilatory potency (in words) / pD2-value (vasodilatory potency): phenylephrine-preconstricted rat aorta; for EC50: read-out: pD2-value (vasodilatory potency) (converted)
Description: Vasodilation of rat aortic ring segments preconstricted with phenylephrine, Example 3, Table 1. […].
After reaching a stable preconstriction of vascular tone, the vessels were dose-dependently vasodilated until the final tone at the highest added concentration of the vasodilator was reached. The vasodilators were added at half-logarithmic concentrations starting at 10^−8 M (=10 nanomolar). Vasodilatory potency was compared creating a concentration-relaxation curve. The data are based on experiments with aorta from at least 6 rats on 3 different days.

[3] = tested on: Wistar rats; assay: Endothelial dysfunction, in vivo tolerance and cross-tolerance after 7 days treatment; set-up: species or system rat
Description: To assess the tendency of a given organic nitrate to induce in vivo tolerance and endothelial dysfunction, Wistar rats were treated for 7 days with placebo (solvent alone) or 3 increasing doses of the organic nitrate. […] Vascular function was assessed by isometric tension studies as described above. Acetylcholine (ACh) is an endothelium-dependent vasodilator whereas organic nitrates (e.g. compound 1 or nitroglycerin) are endothelium-independent vasodilators. Endothelial dysfunction will result in impaired ACh-dependent relaxation whereas nitrate tolerance and/or vascular dysfunction causes impaired compound 1 dependent or nitroglycerin dependent vasodilation.

[4] = tested on: Beagle dogs; assay: Effects on blood pressure in Beagle dogs; type: in vivo, dog
Description: Each group was administered three ascending doses separated by 4 wash out days providing 9 different treatments as shown in the following table:
The liquid was administered per gavage. […] The capsule was administered orally.
In this group the liquid was administered intravenously as a slow bolus injection.
Blood pressure was assessed for all treatments before dosing and 1, 2, 3, 4, 5, 6, 8, 12 and 24 h after dosing.

[5] = 10-1000 μM, isolated mitochondria

Compound	ROS formation, Mean (ECL signal) ([1]; rat, 10 μM)	ROS formation, Mean (ECL signal) ([1]; rat, 100 μM)	ROS formation, Mean (ECL signal) ([1]; rat, 1000 μM)	Isometric tension, relaxation (Mean ± SEM) ([2]; Log [M] −3.5)	Isometric tension, relaxation (Mean ± SEM) ([2]; Log [M] −4)	Isometric tension, relaxation (Mean ± SEM) ([2]; Log [M] −4.5)	Isometric tension, relaxation (Mean ± SEM) ([2]; Log [M] −5)	Isometric tension, relaxation (Mean ± SEM) ([2]; Log [M] −5.5)	Isometric tension, relaxation (Mean ± SEM) ([2]; Log [M] −6)	Isometric tension, relaxation (Mean ± SEM) ([2]; Log [M] −6.5)	Isometric tension, relaxation (Mean ± SEM) ([2]; Log [M] −7)	Isometric tension, relaxation (Mean ± SEM) ([2]; Log [M] −7.5)	EC50 [2]	Vasodilatory potency (in words) [2]	Effect on RONS signal / in vitro oxidative stress (in words) [1, 5]	ROS formation, Mean (ECL signal) ([1]; Conc. 10 μM)	ROS formation, Mean (ECL signal) ([1]; Conc. 100 μM)	ROS formation, Mean (ECL signal) ([1]; Conc. 1000 μM)	Isometric tension, relaxation (Mean ± SEM) ([2]; Log [M] −3)	pD2-value (vasodilatory potency) [2]	other results
CCCCC(=O)N(Cc1ccc(-c2ccccc2-c2nnn[nH]2)cc1)[C@H](C(=O)O)C(C)C [compound 3, Valsartan]	2971.58 counts/30 s	2871.29 counts/30 s	9878.96 counts/30 s	21.98 ± 3.75%	9.43 ± 2.03%	4.94 ± 2.65%	0.29 ± 2.56%	−0.58 ± 3.84%	1.05 ± 3.85%	0.87 ± 2.97%	1.64 ± 3.06%	4.25 ± 2.13%	< 1000 µM	weak relaxing effects							
O=[N+]([O-])OCCCCO [HBN, 1-Hydroxy-4-butyl nitrate]				95.69 ± 2.40%	77.74 ± 3.73%	55.15 ± 5.33%	34.50 ± 4.63%	15.21 ± 4.71%	7.11 ± 2.87%	3.24 ± 2.77%	1.42 ± 2.55%	1.84 ± 1.72%		intermediate vasodilatory potency	somewhat more pronounced effects on RONS formation	5116.17 counts/30 s	3005.75 counts/30 s	10472.33 counts/30 s	95.71 ± 1.27%	approximately 4.5	
CCCCC(=O)N(Cc1ccc(-c2ccccc2-c2nnn[nH]2)cc1)C(C(=O)N(C)CCCCO[N+](=O)[O-])C(C)C [compound 2, (2R)-3-Methyl-2-(N-((2′-(1H-tetrazol-5-yl)biphenyl-4-yl)methyl)pentanamido)-butanoyl N-methyl-N-4-nitroxybutyl-amide]	9007.83 counts/30 s	4532.33 counts/30 s	4386.00 counts/30 s	50.40 ± 7.89%	31.38 ± 6.92%	13.69 ± 3.68%	8.61 ± 2.77%	8.56 ± 2.18%	7.43 ± 1.86%	6.06 ± 1.69%	4.61 ± 1.19%	2.45 ± 0.93%	< 100 µM								
O=[N+]([O-])O[C@H]1CO[C@H]2[C@@H]1OC[C@H]2O[N+](=O)[O-] [ISDN, Isosorbide dinitrate]															increases the RONS signal in a concentration-dependent fashion, although only slightly	5718.33 counts/30 s	6608.83 counts/30 s	8744.83 counts/30 s			
CNCCCCO[N+](=O)[O-].O=[N+]([O-])O [MNBAN, N-Methyl-N-(4-nitroxybutyl)ammonium nitrate]				88.56 ± 2.69%	74.46 ± 4.13%	50.81 ± 6.88%	30.56 ± 7.29%	14.85 ± 5.75%	8.33 ± 4.85%	5.04 ± 3.29%	3.24 ± 2.80%	1.72 ± 1.50%	~31.6 µM	intermediate vasodilatory potency					95.84 ± 2.26%		Effect on RONS signal / in vitro oxidative stress (in words) [1]: somewhat more pronounced effects on RONS formation
(2R)-3-Methyl-2-(N-((2′-(1-(2″-nitroxyethylaminocarbonyloxymethyl)-1H-tetrazol-5-yl)biphenyl-4-yl)methyl)pentanamido)butanoyl N-methyl-N-4-nitroxybutyl-amide 1A and the corresponding 2-(2″-nitroxyethylaminocarbonyloxymethyl)-2H-tetrazol-5-yl isomer 1B [compound 1]				91.52 ± 3.83%	88.20 ± 5.11%	81.43 ± 6.54%	59.97 ± 6.28%	43.47 ± 5.88%	27.39 ± 4.09%	14.66 ± 2.59%	8.52 ± 1.64%	4.64 ± 0.93%				6820.33 counts/30 s	4534.00 counts/30 s	5088.33 counts/30 s		approximately 5.5	Effect on RONS signal / in vitro oxidative stress (in words) ([1]; 10-1000 μM, isolated mitochondria, listed as dinitrate 1): RONS signal is suppressed at higher concentrations; Effect on RONS signal / in vitro oxidative stress (in words) ([1]; 10-1000 μM, isolated mitochondria, listed as valsartan dinitrate 1): does not induce in vitro oxidative stress in isolated mitochondria; Adverse effects on endothelial or vascular function, in vivo tolerance or cross tolerance ([3]; low and middle dose): did not show any significant adverse effects on endothelial or vascular function; Toxic effects ([3]; up to the highest dose): not show any toxic effects; Blood pressure lowering effect (in words) ([4]; gavage, oral capsule or intravenous, ascending doses): two sequential lowerings of blood pressure; Duration of effect on blood pressure ([4]; overall): at least 10 hours; Blood pressure lowering observed up to ([4]; several animals): up to 24 hours; Vasodilatory potency (in words) ([2]; listed as Valsartan dinitrate 1): as potent as isosorbide dinitrate; Vasodilatory potency (in words) ([2]; listed as valsartan dinitrate 1): as active as isosorbide dinitrate
